Measurements taken from patent US7749976B2, “Isolated PTPMT1 protein which mediates insulin production and uses thereof” (The Regents of the University of California, priority 2005, dated 2010).
Marks after values point to notes of the source that are not given here.

Legend:
PLIP [1] = molecular target: T1, PLIP (Mus musculus, UniProt Q66GT5); assay: Phosphatase activity of various PTPs (malachite green / radiolabeled protein substrates); format: biochemical, murine; details: for Phosphatase activity, PLIP: mole of phosphate released/min/mol of enzyme, pH 5.5, triplicate, this study
T1 construct: ligating a PCR product encoding full-length PLIP; made in house; host or cells: Escherichia coli BL21 (DE3) CodonPlus RIL
T1 sequence (Q66GT5 32-193): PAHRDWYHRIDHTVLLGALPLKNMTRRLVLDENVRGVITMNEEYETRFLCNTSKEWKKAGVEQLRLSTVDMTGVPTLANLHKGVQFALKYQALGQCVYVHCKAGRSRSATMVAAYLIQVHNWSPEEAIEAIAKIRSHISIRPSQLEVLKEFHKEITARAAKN
Method: Recombinant murine PLIP was expressed as a fusion protein with N-terminal GST and 6-His tags in Escherichia coli BL21 (DE3) CodonPlus RIL cells (Stratagene). The expression construct was assembled by ligating a PCR product encoding full-length PLIP into the 5′-EcoR1 and 3′-Xho1 sites of a modified pET41 vector (pSJ6), kindly provided by Zhaohui Xu (University of Michigan). […] Cultures were then chilled on ice for 20 min, supplied with fresh antibiotics, induced with IPTG to a final concentration of 0.4 mM, and allowed to grow overnight @ 25° C., as previously described (Taylor and Dixon, 2003). All subsequent steps were performed @ 4° C. The cultures were pelleted by spinning @ 6000 rpm for 10 min in a Sorvall GSA rotor, resuspended in 30 ml of buffer (20 mM Imidazole, 50 mM Tris pH 7.4, 300 mM NaCl) with Complete protease inhibitors (Roche), and lysed via French Press. Insoluble material was removed by centrifugation @ 50,000 rpm for 30 min. The fusion protein was purified from the soluble supernatant first over Ni^2+ agarose beads, and then by successive separation on Superdex 75 and 200 gel filtration columns (Amersham). The resulting protein was concentrated, flash frozen in liquid nitrogen, and stored @−80° C. in 25% glycerol, 2 mM EDTA, and 2 mM DTT until use.
(§1) Di-C8 phosphoinosites (Echelon) and Dioleoyl-phosphatidylserine (Sigma) were dried together in a Speed Vac and resuspended via sonication in 18 μl assay buffer (100 mM sodium acetate, 50 mM bis-Tris, 50 mM Tris (pH 5.5), 10 mM DTT) to final concentrations of 50 μM and 500 μM, respectively. After prewarming at 37° C. for 5 min, reactions were initiated by the addition of 20 to 2000 ng of GST-PLIP diluted in assay buffer containing 1.0 mg/ml gelatin. Reactions were quenched after 5-30 min by the addition of 20 μl 0.1 M N-ethylmaleimide, and spun at 18,000×g for 10 min to sediment the lipid aggregates. Twenty-five microliters of the supernatant was added to 50 μl of malachite green reagent and vortexed. Samples were allowed to sit for 40 minutes for color development before measuring absorbance at 620 nm. Inorganic phosphate release was quantitated by comparison to a standard curve of KH2PO4 in dH2O.
(§2) Assays using radiolabeled protein substrates or pNPP were carried in assay buffer containing 50 mM sodium acetate, 25 mM bis-Tris, 25 mM Tris, and 2 mM DTT at pH 5.5 (GST-PLIP), 6.0 (VHR), or 7.0 (TC-PTP), at 30° C. Radiolabeled proteins and pNPP were prepared and assayed as previously reported (Taylor et al., 1997).

PTEN = PTEN (Homo sapiens, UniProt P60484); assay: Phosphatase activity of various PTPs; format: biochemical; details: for Phosphatase activity, PTEN: phosphoinositide substrates, this study
PTEN, sequence (P60484 whole entry, species assumed): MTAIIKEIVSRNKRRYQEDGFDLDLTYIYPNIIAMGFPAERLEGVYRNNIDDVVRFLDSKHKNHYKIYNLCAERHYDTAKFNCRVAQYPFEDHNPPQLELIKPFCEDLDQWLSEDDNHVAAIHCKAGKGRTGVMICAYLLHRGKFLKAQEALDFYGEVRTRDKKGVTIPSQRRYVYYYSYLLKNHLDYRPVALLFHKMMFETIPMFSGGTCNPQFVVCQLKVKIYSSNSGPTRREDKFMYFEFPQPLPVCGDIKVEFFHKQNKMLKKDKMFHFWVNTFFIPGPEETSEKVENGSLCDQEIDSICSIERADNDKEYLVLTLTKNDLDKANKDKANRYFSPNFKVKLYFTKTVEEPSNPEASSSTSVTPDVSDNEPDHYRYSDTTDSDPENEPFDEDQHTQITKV

MTM1 [2] = molecular target: T2, MTM1 (Homo sapiens, UniProt Q13496); details: Ref. 32; cited from earlier work
T2 sequence (Q13496 1-603): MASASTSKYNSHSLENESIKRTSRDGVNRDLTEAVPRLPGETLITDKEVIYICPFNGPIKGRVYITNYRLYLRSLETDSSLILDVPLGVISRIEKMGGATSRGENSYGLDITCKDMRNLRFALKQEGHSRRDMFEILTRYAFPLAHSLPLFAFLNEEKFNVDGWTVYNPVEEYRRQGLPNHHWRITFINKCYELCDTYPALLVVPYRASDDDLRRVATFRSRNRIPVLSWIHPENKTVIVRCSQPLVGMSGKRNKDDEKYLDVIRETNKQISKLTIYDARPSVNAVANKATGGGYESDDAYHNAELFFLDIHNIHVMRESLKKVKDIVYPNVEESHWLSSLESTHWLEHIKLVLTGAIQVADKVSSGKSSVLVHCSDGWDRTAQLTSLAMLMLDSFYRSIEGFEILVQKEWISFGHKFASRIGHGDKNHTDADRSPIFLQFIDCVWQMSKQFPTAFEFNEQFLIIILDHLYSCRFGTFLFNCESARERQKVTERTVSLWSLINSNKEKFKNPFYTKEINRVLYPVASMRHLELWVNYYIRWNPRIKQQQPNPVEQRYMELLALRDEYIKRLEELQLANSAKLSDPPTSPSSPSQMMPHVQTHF

PLIP [3] = molecular target: T1, PLIP; assay: Activity of PLIP against water soluble PI(5)P derivatives of varying acyl chain length; format: biochemical, murine; details: water soluble substrate
PLIP [4] = molecular target: T1, PLIP; assay: Kinetic analysis of PLIP phosphatase activity (saturation kinetics); format: biochemical, murine
Method: as §2
To further explore PLIP's propensity to act as a protein phosphatase, a kinetic analysis of its activity toward the artificial phosphotyrosine analog, para-nitrophenyl phosphate (pNPP), alongside with di-C8 PI(5)P were performed (Taylor et al., 1997). FIG. 3 illustrates the kinetic analysis of PLIP phosphatase activity. Saturation kinetics for PLIP against pNPP (A) and water-soluble di-C8 PI(5)P (B) are shown. V (reaction velocity) is in units of pmol/(min μg).

TC-PTP = molecular target: T3, TC-PTP (Homo sapiens, UniProt P17706); assay: Phosphatase activity of various PTPs (malachite green / radiolabeled protein substrates); format: biochemical
T3 sequence (P17706 1-415): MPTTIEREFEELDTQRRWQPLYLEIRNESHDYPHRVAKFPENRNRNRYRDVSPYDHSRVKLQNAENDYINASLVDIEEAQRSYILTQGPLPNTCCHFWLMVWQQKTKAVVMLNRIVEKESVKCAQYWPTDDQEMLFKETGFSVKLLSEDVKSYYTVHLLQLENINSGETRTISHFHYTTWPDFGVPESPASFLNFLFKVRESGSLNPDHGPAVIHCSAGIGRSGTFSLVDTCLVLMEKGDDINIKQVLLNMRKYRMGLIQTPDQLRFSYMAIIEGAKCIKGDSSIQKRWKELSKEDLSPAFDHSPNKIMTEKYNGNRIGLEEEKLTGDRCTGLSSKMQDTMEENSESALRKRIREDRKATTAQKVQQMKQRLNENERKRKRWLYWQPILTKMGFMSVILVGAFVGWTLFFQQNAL
Method: as §1, §2
(§3) Due to the only recent emergence of PI(5)P as a known signaling molecule, few PTP's have been tested for activity against this substrate. To ensure that activity against PI(5)P is not a common feature of PTP's, membrane-bound di-C8 PI(5)P was assayed using a known tyrosine-specific PTP (TC-PTP) and a known dual-specific PTP (VHR) (Ishibashi et al., 1992; Zhao et al., 1992; Ruzzene et al., 1993; Zhou et al., 1994; Denu et al., 1995).

VHR = VHR (Homo sapiens, UniProt P51452); assay: as above; format: biochemical
VHR, sequence (P51452 whole entry, species assumed): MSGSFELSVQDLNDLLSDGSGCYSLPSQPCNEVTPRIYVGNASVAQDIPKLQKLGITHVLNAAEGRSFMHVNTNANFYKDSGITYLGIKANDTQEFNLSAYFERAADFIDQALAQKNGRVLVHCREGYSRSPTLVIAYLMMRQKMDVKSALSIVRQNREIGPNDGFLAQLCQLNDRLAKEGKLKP
Method: as §1, §2, §3

MTM1 [5] = molecular target: T2, MTM1; assay: Phosphatase activity of various PTPs; format: biochemical
[6] = mole of phosphate released/min/mol of enzyme, triplicate, this study

In the case of `Nc1ncnc2c1ncn2[C@@H]1O[C@H](COP(=O)(O)OP(=O)(O)OP(=O)(O)O)[C@@H](O)[C@H]1O` [ATP], the “ATPase activity of PTPMT1 in vitro” value (PLIP [1]) is reported as “extremely poor”.

In the case of `CCCCCCCC(=O)OC[C@H](COP(=O)(O)O[C@@H]1[C@H](O)[C@H](OP(=O)(O)O)[C@@H](O)[C@H](O)[C@H]1O)OC(=O)CCCCCCC` [PI (3) P], the “Phosphatase activity, PLIP” value (PLIP [1]) is given as 1.3^b mol/(min mol), the “Phosphatase activity, PTEN” value (PTEN) is given as 77.9^b mol/(min mol) and the “Phosphatase activity, MTM1” value (MTM1 [2]) is given as 4470^d mol/(min mol).

With `CCCCCCCC(=O)OC[C@H](COP(=O)(O)OC1[C@H](O)[C@H](OP(=O)(O)O)C(OP(=O)(O)O)[C@H](OP(=O)(O)O)[C@H]1O)OC(=O)CCCCCCC` (stereo partly drawn) [PI (3, 4, 5) P3] the “Phosphatase activity, PLIP” value (PLIP [1]) was 3.1^b mol/(min mol), the “PTEN fold preference over PI(3,5)P2” value (PTEN; di-C8 PIs in lipid bilayer with phosphatidylserine carrier lipid) was 1.8 fold and the “Phosphatase activity, PTEN” value (PTEN) was 346^b mol/(min mol). The “Phosphatase activity, MTM1” value (MTM1 [2]) was 2.1^d mol/(min mol).

With `CCCC(=O)OCC(COP(=O)(O)OC1C(O)C(O)C(O)C(OP(=O)(O)O)C1O)OC(=O)CCC` (stereo not drawn) [di-C4 PI(5)P] the “Fold increase in PLIP activity versus inositol (1,5)P2” value (PLIP [3]) was 10 fold.

With `O=[N+]([O-])c1ccc(OP(=O)(O)O)cc1` [pNPP, para-nitrophenyl phosphate] the “Km fold higher than Km for di-C8 PI(5)P” value (PLIP [4]) was “more than 150 fold” and the Km (PLIP [4]; PLIP against pNPP) was 5900 µM.

In the case of casein, the “PLIP activity, fold lower than against PI(5)P” value (PLIP [1]; radiolabeled protein substrates) is reported as “approximately 1000 fold”.

In the case of “phosphatidylinositol-5 phosphate [PI (5) P]”, the “TC-PTP activity” value (TC-PTP; membrane-bound di-C8 PI(5)P) is reported as “barely detectable above background”, the “Phosphatase activity, TC-PTP” value (TC-PTP; [6]) is reported as ~0.0^b mol/(min mol) and the “VHR activity” value (VHR; membrane-bound di-C8 PI(5)P) is reported as “barely detectable above background”. The “Phosphatase activity, VHR” value (VHR; [6]) was ~0.0^b mol/(min mol), the “PLIP activity, fold greater than against PI(3,5)P2” value (PLIP [1]; di-C8 PI's in lipid bilayer with phosphatidylserine carrier lipid) was 44 fold and the “Phosphatase activity, PLIP” value (PLIP [1]) was 135^b mol/(min mol). For the same molecule, the “PTEN: fold less efficiency than toward preferred substrate” value (PTEN) was 17 fold, the “Phosphatase activity, PTEN” value (PTEN) was 20.4^b mol/(min mol) and the “MTM1: fold less efficiency than toward preferred substrate” value (MTM1 [5]) was 200 fold. The Km (PLIP [4]; PLIP against water-soluble di-C8 PI(5)P) was 37.5 µM, the “Fold increase in PLIP activity versus di-C4 PI(5)P” value (PLIP [3]) was 10 fold and the “Phosphatase activity, MTM1” value (MTM1 [2]) was 22.7^d mol/(min mol).
